Measured values as given in patent US20210060093A1, “COMBINATION THERAPY FOR TREATING OR PREVENTING CANCER” (4D Pharma Research Limited, priority 2018, published 2021).

Legend:
[1] = test system: RENCA tumour cells; assay: Antitumor activity, RENCA model; format: in vivo, mouse; details: D18 and D22, compared to untreated and vehicle groups, FIG. 3B
Method: Treatment schedule—The start of first dosing was considered as D0. On D0, non-engrafted mice were randomized according to their individual body weight into groups of 9 mice using Vivo manager® software (Biosystemes, Couternon, France). On D0, the mice received vehicle (culture medium) or bacterial strain (2×10^8 in 200 μL, PO). On D14, all mice were engrafted with RENCA tumour cells injected SC into the ventral surface of the lower flank as described below. Treatment with anti-CTLA-4 (10 mg/kg, IP) and anti-PDL1 (clone 10F.9G2, 10 mg/kg) was initiated when tumours reached a volume of 50-70 mm3.
Orthotopic induction of RENCA tumor cells in animals by SC injection—On D14, one million (1×10^6) RENCA tumor cells in 50 μL RPMI 1640 medium were transplanted via SC injection into the ventral surface of the lower flank of mice.
Euthanasia—Each mouse was euthanized when it reached a humane endpoint as described in section below, or after a maximum of 6 weeks post start of dosing.
Evaluation of tumour burden at euthanasia—At the time of termination, tumours were collected and their volume evaluated.
Clinical monitoring—The length and width of the tumour was measured twice a week with callipers and the volume of the tumour was estimated by this formula [52]: […]

[2] = test system: immature dendritic cells; assay: Cytokine production in immature dendritic cells; format: cell-based; details: MRX518 10^7/ml, LPS 100 ng/ml, FIGS. 4b, 4d
Method: A monocyte population was isolated from peripheral blood mononuclear cells (PBMCs). The monocyte cells were subsequently differentiated into immature dendritic cells. The immature dendritic cells were plated out at 200,000 cells/well and incubated with MRX518 at a final concentration of 10^7/ml, with the optional addition of LPS at a final concentration of 100 ng/ml. The negative control involved incubating the cells with RPMI media alone and positive controls incubated the cells with LPS at a final concentration of 100 ng/ml. The cytokine content of the cells was then analysed.

Molecule	reduction in tumour size [1]	level of IL-1β [2]
CC(=O)O[C@H]1C(=O)[C@@]2(C)[C@H]([C@H](OC(=O)c3ccccc3)[C@]3(O)C[C@H](OC(=O)[C@H](O)[C@@H](NC(=O)c4ccccc4)c4ccccc4)C(C)=C1C3(C)C)[C@]1(OC(C)=O)CO[C@@H]1C[C@@H]2O [Paclitaxel]	(almost) complete reduction in tumour size	–
lipopolysaccharide [LPS]	–	but not IL-1β
